Where no end group is shown, it is not given here.
Tests used:
[1] = molecular target: T1, interaction between VCP and mtHtt (Homo sapiens, UniProt P55072); assay: VCP binding assay: association of VCP to mtHtt by immunoprecipitation and western blot in HEK293 cells; format: cell-based; details: HEK293 cells co-transfected with GFP-VCP and myc-Q73 FL, 3 μM, three doses
T1 construct: GFP; expressed in transfected cells; host or cells: HEK293
Procedure: Therefore, target engagement protein binding assays were conducted. HEK293 cells were cultured and plated one day before treatment. Cells were pre-treated with HV3-TAT or PLPs at 3 μM for 2 h. Cells were then co-transfected with GFP-VCP and myc-Q73 FL plasmids. Cells were treated with a second dose of peptide or PLPs 6 hours after transfection, and a final third dose of peptide or PLPs treatment was administered 24 hours after transfection. Cell total lysate was harvested 48 hours after transfection, and to confirm binding of PLPs to VCP in cells, association of VCP to mtHtt was quantified by immunoprecipitation (IP) followed by western blot upon treatment of HV3-TAT peptide and PLPs.

HdhQ111 cells [2] = assay: Cell viability in HdhQ111 cells after enzyme or serum pretreatment of the compounds; format: cell-based, mouse; details: relative to compound without pretreatment, 3 μM with respect to peptide
Procedure: FIG. 10A-10B: Cell viability in HdhQ111 mouse striatal cells after enzyme pretreatment.
Each degradation experiment was repeated three times.
To verify that the PLPs retain bioactivity after being exposed to enzymes or serum treatments, the viability of HD mouse mutant striatal HdhQ111 cells was assessed following treatment with HV3-TAT and P1. […] Cells were maintained at 33° C. and 5% CO2 with a relative humidity of 95%. HdQ111 cells were plated in 96-well plates at a density of 5000 per well and then left to attach for 24 h. Cells were treated with HV3-TAT or PLPs at 3 μM with respect to peptide once a day, for 3 days. The medium was replaced every day. After 72 h, cells were washed 3 times with PBS buffer. At this point, 20 μL of CTB reagent in 80 uL of medium was added, and the cells incubated for 3 hours at 37° C. Fluorescence was measured at 590 nm with excitation at 560 nm using a Perkin Elmer EnSpire plate reader. The average background fluorescence of CTB in media without cells was subtracted from the average fluorescence readings of the experimental wells. Viability was calculated as the average background-subtracted signal in a well compared to that of a negative control well (treatment with vehicle or media). Three replicates were performed for each independent sample. 10% DMSO was used as a positive control and untreated cells in complete medium as a negative control. […]

HdhQ111 cells [3] = assay: Cell viability (cell rescue) of serum-starved HdhQ111 cells; format: cell-based, mouse; details: 3 μM with respect to peptide, once a day for 3 days; compared to the vehicle control
Procedure: FIG. 3A: Cell viability of HV3-TAT peptide and PLPs. Compounds treated to the HdhQ111 cells once a day for 3 days. Concentration was 3 μM with respect to peptide. FIG. 3B: VCP binding assay results for HV3-TAT, P1, P2, and P4.
Cell Viability Methods: In vitro assays were carried out to examine the bioactivity of the PLPs, P1, P2, P3, and P4 and to compare against the known, active HV3-TAT. […] HdhQ111 cells were immortalized from knock-in mice carrying 111 CAG repeats in the mouse Htt gene.
To verify that the PLPs retain bioactivity after being exposed to enzymes or serum treatments, the viability of HD mouse mutant striatal HdhQ111 cells was assessed following treatment with HV3-TAT and P1. […] Cells were maintained at 33° C. and 5% CO2 with a relative humidity of 95%. HdQ111 cells were plated in 96-well plates at a density of 5000 per well and then left to attach for 24 h. Cells were treated with HV3-TAT or PLPs at 3 μM with respect to peptide once a day, for 3 days. The medium was replaced every day. After 72 h, cells were washed 3 times with PBS buffer. At this point, 20 μL of CTB reagent in 80 uL of medium was added, and the cells incubated for 3 hours at 37° C. Fluorescence was measured at 590 nm with excitation at 560 nm using a Perkin Elmer EnSpire plate reader. The average background fluorescence of CTB in media without cells was subtracted from the average fluorescence readings of the experimental wells. Viability was calculated as the average background-subtracted signal in a well compared to that of a negative control well (treatment with vehicle or media). Three replicates were performed for each independent sample. 10% DMSO was used as a positive control and untreated cells in complete medium as a negative control. Viability is reported as a percentage of untreated cells.

R6/2 mice = assay: mtHtt impact: mitochondrial VCP level and mtHtt aggregation in striatum; format: in vivo, mouse; details: for VCP level on mitochondria of striatum: ATPB loading control; for mtHtt aggregation in striatum: compared to saline treated
From the text: FIG. 34A-34B: Quantification of mitochondrial studies. FIG. 34A depicts quantification of immunoblot results for VCP levels on mitochondrial fractions from striatal extracts of WT and R6/2 mice after treatment (immunoblot not shown). ATPB refers to ATP-ase β subunit. p-value for: WT veh as compared to R62 veh: <0.0001; WT+P1 as compared to R62 veh: <0.0001; R62 veh as compared to R62+HV3-TAT: 0.0001; R62 veh as compared to R62+P1: 0.0184; R62+P1 as compared to R62+HV3-TAT: 0.2663. FIG. 34B depicts quantification of mtHtt aggregation after EM48 staining (stains not shown). p-value for: R62 veh as compared to R62+HV3-TAT: 0.0491; R62 veh as compared to R62+P1: 0.0189; R62+P1 as compared to R62+HV3-TAT: 0.8765.
In vivo Efficacy Methods—mtHtt Impact: As the pathophysiological hallmark of HD, the formation of mtHtt aggregates can be observed in striatum of HD mouse models, like R6/2 mice. […] HV3 peptide blocks mtHtt-VCP binding, and inhibits VCP mitochondrial accumulation, which reduce behavioral and neuropathological phenotypes of HD. Mitochondrial level of VCP and mtHtt aggregation were examined to test whether PLP recapitulates the mechanism of HV3 peptide. Mitochondrial fractions of striatum were isolated from mice in each treatment group. Protein levels of VCP on mitochondria were analyzed by western blotting, using ATPB as a loading control for mitochondria. mtHtt aggregation was visualized by immunohistochemical staining by anti-mtHtt antibody.

VCP = molecular target: T2, VCP (Homo sapiens, UniProt P55072); assay: Bio-layer interferometry (BLItz) binding to VCP
T2 construct: purchased Antibodies-online
Procedure: FIG. 14A-14B: Biolayer Interferometry (BLItz) measurements from in vitro assay evaluating binding between P1 and VCP (FIG. 14A) and between HV3-TAT peptide and VCP (FIG. 14B). FIG. 14A: lines from top to bottom: 100 μM, 10 μM, and 750 nM. FIG. 14B: lines from top to bottom: 10 μM, 7.5 μM, 5 μM, and 1.25 μM.
BLI Methods: With cellular VCP engagement verified as discussed in Example 2 (and shown in FIG. 3B), P1 was further assessed for VCP binding via Bio-layer Interferometry (BLI) to further study the interaction compared to HV3-TAT peptide. Binding affinity was measured by using BLItz instrument. The anti-HIS sensor (HIS2) was hydrated before the installation. After the sensor installation to the BLItz instrument, histidine tagged VCP proteins (50 μg/ml in sodium acetate buffer at pH 6.5) were immobilized on the sensor. HV3-TAT and P1 were dissolved in Tris buffer (pH 8.4) with a range of concentrations. Using BLItz instrument, the dissociation constant (KD), on-rate (ka) and off-rate (kd) of each analyte were measured.

[4] = bio-layer interferometry, VCP protein

T2 sequence (P55072 whole entry, species assumed): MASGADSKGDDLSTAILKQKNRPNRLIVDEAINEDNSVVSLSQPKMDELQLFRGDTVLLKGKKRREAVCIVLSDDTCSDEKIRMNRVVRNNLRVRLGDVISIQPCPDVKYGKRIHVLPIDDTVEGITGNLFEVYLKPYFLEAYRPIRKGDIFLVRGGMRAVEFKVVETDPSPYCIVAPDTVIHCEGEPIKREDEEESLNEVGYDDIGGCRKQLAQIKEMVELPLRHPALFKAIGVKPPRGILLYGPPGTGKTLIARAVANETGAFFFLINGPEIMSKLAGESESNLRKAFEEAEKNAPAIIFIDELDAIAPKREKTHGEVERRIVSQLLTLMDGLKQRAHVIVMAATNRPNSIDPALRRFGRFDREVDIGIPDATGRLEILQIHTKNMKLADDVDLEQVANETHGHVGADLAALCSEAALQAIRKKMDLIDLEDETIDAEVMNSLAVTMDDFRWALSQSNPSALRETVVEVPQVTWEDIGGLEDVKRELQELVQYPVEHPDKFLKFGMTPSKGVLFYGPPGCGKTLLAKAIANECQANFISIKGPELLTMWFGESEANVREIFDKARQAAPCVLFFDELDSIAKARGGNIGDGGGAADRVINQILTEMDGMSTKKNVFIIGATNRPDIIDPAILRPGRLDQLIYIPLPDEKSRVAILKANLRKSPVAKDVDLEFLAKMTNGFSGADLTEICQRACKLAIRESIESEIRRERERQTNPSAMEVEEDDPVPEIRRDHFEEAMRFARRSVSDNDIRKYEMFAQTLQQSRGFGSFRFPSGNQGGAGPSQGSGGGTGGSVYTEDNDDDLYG
T1 sequence (P55072 whole entry): as the sequence (P55072 whole entry, species assumed) above

| Substance | association of VCP to mtHtt (VCP binding) [1] | cell viability after enzyme or serum pretreatment of the compound (HdhQ111 cells [2]) | cell viability (HdhQ111 cells [3]) | VCP level on mitochondria of striatum (R6/2 mice) | mtHtt aggregation in striatum (R6/2 mice) | decrease in dissociation constant compared to the HV3-TAT peptide (VCP; BLI, VCP) | Kd (VCP; BLI, VCP) | koff (VCP; [4]) | kon (VCP; [4]) |
| --- | --- | --- | --- | --- | --- | --- | --- | --- | --- |
| P1: PLP homopolymer having peptide side chains of SEQ ID: 1 (HVLVMSATRR), made by ROMP of norbornene peptide monomer M1 (also: side chains of polynorbornene homopolymer (PLP, ROMP of norbornene peptide monomer)) | exhibited evidence for binding | did not have any significant change in cell viability | higher significance than P3 | inhibited mitochondrial VCP accumulation to a lesser extent | inhibited mtHtt aggregation | more than 150 fold | – | – | – |
| peptide sequence HVLVMCAT (HV3) coupled to the cell penetrating, HIV-derived TAT peptide [HV3-TAT, reference compound] | exhibited evidence for binding | significant decrease in cell viability | significant increases in cell viability | blocked aberrant VCP mitochondrial translocation | inhibited mtHtt aggregation | – | 14 µM | 0.023 s⁻¹ | 1600 M⁻¹ s⁻¹ |

Reference: US20240110004A1 (Northwestern University, priority 2022, published 2024)
